Test results published in US12077503B2, “Substituted cyclic amides and their use as herbicides” (FMC CORPORATION, priority 2015, dated 2024).

What was measured:
Format in all cases: in vivo
[1] = system: ivy-leaved morning glory (Ipomoea hederacea); assay: Test G Post-Emergence Protocol; conditions: Ipomoea, post-emergence, 312 h, read-out: Morningglory, Ivy-leaved damage rating; for pest or weed control at 15.625 g/ha: 15.625 g ai/ha, evaluated after 13 days (100=total damage to plant; 0=no damage to plant); for pest or weed control at 62.5 g/ha: 62.5 g ai/ha; for pest or weed control at 62.5 g/ha / pest or weed control at 250 g/ha: evaluated after 13 days, 100=total damage to plant, 0=no damage to plant; for pest or weed control at 250 g/ha: 250 g ai/ha
Method in brief: (§1)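 A glasshouse post-emergence test: 8-day-old plants sprayed at 15.625, 62.5 or 250 g/ha, then grown at 24/16 °C day/night with 14 h light and 65% humidity. Damage rated 13 days later, 0–100.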

[2] = system: corn (Zea mays); assay: Test G Post-Emergence Protocol; conditions: Zea mays, post-emergence, 312 h, read-out: Corn damage rating; for plant injury at 15.625 g/ha: 15.625 g ai/ha, evaluated after 13 days (100=total damage to plant; 0=no damage to plant); for plant injury at 62.5 g/ha: 62.5 g ai/ha; for plant injury at 62.5 g/ha / plant injury at 250 g/ha: evaluated after 13 days, 100=total damage to plant, 0=no damage to plant; for plant injury at 250 g/ha: 250 g ai/ha
Method in brief: as §1

[3] = system: giant foxtail (Setaria faberi); assay: Test G Post-Emergence Protocol; conditions: Setaria faberi, post-emergence, 312 h, read-out: Foxtail, Giant damage rating; for pest or weed control at 15.625 g/ha: 15.625 g ai/ha, evaluated after 13 days (100=total damage to plant; 0=no damage to plant); for pest or weed control at 62.5 g/ha: 62.5 g ai/ha; for pest or weed control at 62.5 g/ha / pest or weed control at 250 g/ha: evaluated after 13 days, 100=total damage to plant, 0=no damage to plant; for pest or weed control at 250 g/ha: 250 g ai/ha
Method in brief: as §1

[4] = system: barnyardgrass (Echinochloa crus-galli); assay: Test G Post-Emergence Protocol; conditions: Echinochloa crus-galli, post-emergence, 312 h, read-out: Barnyardgrass damage rating; for pest or weed control at 15.625 g/ha: 15.625 g ai/ha, evaluated after 13 days (100=total damage to plant; 0=no damage to plant); for pest or weed control at 62.5 g/ha: 62.5 g ai/ha; for pest or weed control at 62.5 g/ha / pest or weed control at 250 g/ha: evaluated after 13 days, 100=total damage to plant, 0=no damage to plant; for pest or weed control at 250 g/ha: 250 g ai/ha
Method in brief: as §1

[5] = system: velvetleaf (Abutilon theophrasti); assay: Test G Post-Emergence Protocol; conditions: Abutilon theophrasti, post-emergence, 312 h, read-out: Velvetleaf damage rating; for pest or weed control at 15.625 g/ha: 15.625 g ai/ha, evaluated after 13 days (100=total damage to plant; 0=no damage to plant); for pest or weed control at 62.5 g/ha: 62.5 g ai/ha; for pest or weed control at 62.5 g/ha / pest or weed control at 250 g/ha: evaluated after 13 days, 100=total damage to plant, 0=no damage to plant; for pest or weed control at 250 g/ha: 250 g ai/ha
Method in brief: as §1

[6] = system: redroot pigweed (Amaranthus retroflexus); assay: Test G Post-Emergence Protocol; conditions: Amaranthus retroflexus, post-emergence, 312 h, read-out: Pigweed, Redroot damage rating; for pest or weed control at 15.625 g/ha: 15.625 g ai/ha, evaluated after 13 days (100=total damage to plant; 0=no damage to plant); for pest or weed control at 62.5 g/ha: 62.5 g ai/ha; for pest or weed control at 62.5 g/ha / pest or weed control at 250 g/ha: evaluated after 13 days, 100=total damage to plant, 0=no damage to plant; for pest or weed control at 250 g/ha: 250 g ai/ha
Method in brief: as §1

[7] = system: ivy-leaved morning glory (Ipomoea hederacea); assay: Test G Pre-Emergence Protocol; conditions: Ipomoea, pre-emergence, 312 h, evaluated after 13 days; for pest or weed control at 15.625 g/ha: 15.625 g ai/ha; for pest or weed control at 15.625 g/ha / pest or weed control at 250 g/ha: read-out: Morningglory, Ivy-leaved damage rating (100=total damage to plant; 0=no damage to plant); for pest or weed control at 62.5 g/ha: 62.5 g ai/ha, 100=total damage to plant, 0=no damage to plant, read-out: Morningglory, Ivy-leaved damage rating; for pest or weed control at 250 g/ha: 250 g ai/ha
Method in brief: (§2)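 Scores are visual damage ratings from 0 (no damage) to 100 (total plant kill), taken 13 days after treatment. Compound was sprayed one day post-sowing at 15.625, 62.5 or 250 g/ha in 50:50 acetone/water with 0.5% Tween 20.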

[8] = system: corn (Zea mays); assay: Test G Pre-Emergence Protocol; conditions: Zea mays, pre-emergence, 312 h, evaluated after 13 days; for plant injury at 15.625 g/ha: 15.625 g ai/ha; for plant injury at 15.625 g/ha / plant injury at 250 g/ha: read-out: Corn damage rating (100=total damage to plant; 0=no damage to plant); for plant injury at 62.5 g/ha: 62.5 g ai/ha, 100=total damage to plant, 0=no damage to plant, read-out: Corn damage rating; for plant injury at 250 g/ha: 250 g ai/ha
Method in brief: as §2

[9] = system: giant foxtail (Setaria faberi); assay: Test G Pre-Emergence Protocol; conditions: Setaria faberi, pre-emergence, 312 h, evaluated after 13 days; for pest or weed control at 15.625 g/ha: 15.625 g ai/ha; for pest or weed control at 15.625 g/ha / pest or weed control at 250 g/ha: read-out: Foxtail, Giant damage rating (100=total damage to plant; 0=no damage to plant); for pest or weed control at 62.5 g/ha: 62.5 g ai/ha, 100=total damage to plant, 0=no damage to plant, read-out: Foxtail, Giant damage rating; for pest or weed control at 250 g/ha: 250 g ai/ha
Method in brief: as §2

[10] = system: barnyardgrass (Echinochloa crus-galli); assay: Test G Pre-Emergence Protocol; conditions: Echinochloa crus-galli, pre-emergence, 312 h, evaluated after 13 days; for pest or weed control at 15.625 g/ha: 15.625 g ai/ha; for pest or weed control at 15.625 g/ha / pest or weed control at 250 g/ha: read-out: Barnyardgrass damage rating (100=total damage to plant; 0=no damage to plant); for pest or weed control at 62.5 g/ha: 62.5 g ai/ha, 100=total damage to plant, 0=no damage to plant, read-out: Barnyardgrass damage rating; for pest or weed control at 250 g/ha: 250 g ai/ha
Method in brief: as §2

[11] = system: velvetleaf (Abutilon theophrasti); assay: Test G Pre-Emergence Protocol; conditions: Abutilon theophrasti, pre-emergence, 312 h, evaluated after 13 days; for pest or weed control at 15.625 g/ha: 15.625 g ai/ha; for pest or weed control at 15.625 g/ha / pest or weed control at 250 g/ha: read-out: Velvetleaf damage rating (100=total damage to plant; 0=no damage to plant); for pest or weed control at 62.5 g/ha: 62.5 g ai/ha, 100=total damage to plant, 0=no damage to plant, read-out: Velvetleaf damage rating; for pest or weed control at 250 g/ha: 250 g ai/ha
Method in brief: as §2

[12] = system: redroot pigweed (Amaranthus retroflexus); assay: Test G Pre-Emergence Protocol; conditions: Amaranthus retroflexus, pre-emergence, 312 h, evaluated after 13 days; for pest or weed control at 15.625 g/ha: 15.625 g ai/ha; for pest or weed control at 15.625 g/ha / pest or weed control at 250 g/ha: read-out: Pigweed, Redroot damage rating (100=total damage to plant; 0=no damage to plant); for pest or weed control at 62.5 g/ha: 62.5 g ai/ha, 100=total damage to plant, 0=no damage to plant, read-out: Pigweed, Redroot damage rating; for pest or weed control at 250 g/ha: 250 g ai/ha
Method in brief: as §2

CN1C[C@H](c2ccc(C(F)(F)F)cc2)[C@@H](C(=O)Nc2cnccc2S(C)(=O)=O)C1=O (racemic) [Compound 1746]
10%: pest or weed control at 62.5 g/ha [1] | plant injury at 250 g/ha [2] | pest or weed control at 62.5 g/ha [3] | pest or weed control at 250 g/ha [5] | pest or weed control at 250 g/ha [7] | pest or weed control at 250 g/ha [11]
70%: pest or weed control at 250 g/ha [3] | pest or weed control at 250 g/ha [9]
40%: pest or weed control at 250 g/ha [4]
50%: pest or weed control at 250 g/ha [10]
60%: pest or weed control at 250 g/ha [1]
0%: pest or weed control at 15.625 g/ha [1] | plant injury at 15.625 g/ha [2] | plant injury at 62.5 g/ha [2] | pest or weed control at 15.625 g/ha [3] | pest or weed control at 15.625 g/ha [4] | pest or weed control at 62.5 g/ha [4] | pest or weed control at 15.625 g/ha [5] | pest or weed control at 62.5 g/ha [5] | pest or weed control at 15.625 g/ha [6] | pest or weed control at 15.625 g/ha [7] | pest or weed control at 62.5 g/ha [7] | plant injury at 15.625 g/ha [8] | plant injury at 62.5 g/ha [8] | plant injury at 250 g/ha [8] | pest or weed control at 15.625 g/ha [9] | pest or weed control at 15.625 g/ha [10] | pest or weed control at 62.5 g/ha [10] | pest or weed control at 15.625 g/ha [11] | pest or weed control at 62.5 g/ha [11] | pest or weed control at 15.625 g/ha [12] | pest or weed control at 62.5 g/ha [12]
20%: pest or weed control at 62.5 g/ha [6] | pest or weed control at 250 g/ha [6] | pest or weed control at 62.5 g/ha [9] | pest or weed control at 250 g/ha [12]

CN1C[C@H](c2ccc(C(F)(F)F)cc2)[C@@H](C(=O)Nc2cncnc2Cl)C1=O (racemic) [Compound 1748]
0%: pest or weed control at 15.625 g/ha [1] | pest or weed control at 62.5 g/ha [1] | pest or weed control at 250 g/ha [1] | plant injury at 15.625 g/ha [2] | plant injury at 62.5 g/ha [2] | plant injury at 250 g/ha [2] | pest or weed control at 15.625 g/ha [3] | pest or weed control at 62.5 g/ha [3] | pest or weed control at 250 g/ha [3] | pest or weed control at 15.625 g/ha [4] | pest or weed control at 62.5 g/ha [4] | pest or weed control at 250 g/ha [4] | pest or weed control at 15.625 g/ha [5] | pest or weed control at 62.5 g/ha [5] | pest or weed control at 250 g/ha [5] | pest or weed control at 15.625 g/ha [6] | pest or weed control at 62.5 g/ha [6] | pest or weed control at 250 g/ha [6] | pest or weed control at 15.625 g/ha [7] | pest or weed control at 62.5 g/ha [7] | pest or weed control at 250 g/ha [7] | plant injury at 15.625 g/ha [8] | plant injury at 62.5 g/ha [8] | plant injury at 250 g/ha [8] | pest or weed control at 15.625 g/ha [9] | pest or weed control at 62.5 g/ha [9] | pest or weed control at 250 g/ha [9] | pest or weed control at 15.625 g/ha [10] | pest or weed control at 62.5 g/ha [10] | pest or weed control at 250 g/ha [10] | pest or weed control at 15.625 g/ha [11] | pest or weed control at 62.5 g/ha [11] | pest or weed control at 250 g/ha [11] | pest or weed control at 15.625 g/ha [12] | pest or weed control at 62.5 g/ha [12] | pest or weed control at 250 g/ha [12]
